# Values of other authors as cited in patent US7560455B2, “3-Amino-4-phenylbutanoic acid derivatives as dipeptidyl peptidase inhibitors for the treatment or prevention of diabetes” (Merck & Co., Inc., priority 2003, dated 2009).
# Columns and labels:
# cardiac allograft = conditions: rats; doubled from day 7 to day 14
# hematopoiesis = conditions: mouse, cyclophosphamide-induced neutropenia
# DP-IV = target: T1, DP-IV (Homo sapiens, UniProt P27487)
# T1 construct: GRF is rapidly degraded in plasma to GRF[3-44]
# T1 sequence (P27487 whole entry): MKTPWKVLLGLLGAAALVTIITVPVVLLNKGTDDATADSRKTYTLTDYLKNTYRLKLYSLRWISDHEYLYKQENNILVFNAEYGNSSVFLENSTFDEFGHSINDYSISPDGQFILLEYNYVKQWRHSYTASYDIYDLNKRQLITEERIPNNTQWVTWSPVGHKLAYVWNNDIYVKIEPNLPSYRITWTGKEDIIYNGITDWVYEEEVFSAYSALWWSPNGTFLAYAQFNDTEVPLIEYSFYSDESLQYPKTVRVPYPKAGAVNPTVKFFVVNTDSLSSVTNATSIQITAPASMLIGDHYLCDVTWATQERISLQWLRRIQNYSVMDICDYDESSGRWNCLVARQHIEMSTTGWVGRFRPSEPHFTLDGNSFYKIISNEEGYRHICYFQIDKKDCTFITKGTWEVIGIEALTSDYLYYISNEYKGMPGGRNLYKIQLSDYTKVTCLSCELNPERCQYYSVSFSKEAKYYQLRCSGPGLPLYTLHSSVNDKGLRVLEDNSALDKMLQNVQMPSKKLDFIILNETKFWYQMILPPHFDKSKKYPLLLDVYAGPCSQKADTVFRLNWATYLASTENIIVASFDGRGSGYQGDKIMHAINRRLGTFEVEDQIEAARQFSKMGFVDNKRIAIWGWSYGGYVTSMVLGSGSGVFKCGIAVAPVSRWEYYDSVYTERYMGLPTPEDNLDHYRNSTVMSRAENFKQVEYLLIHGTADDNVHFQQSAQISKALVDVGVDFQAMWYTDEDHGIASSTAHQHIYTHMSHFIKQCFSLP
compound,measurement,setting,value
"CC(C)N1CCC(c2ccccc2)(c2ccccc2)CC1 [Prodipine, Pro-Pro-diphenyl-phosphonate]",cardiac allograft survival,cardiac allograft,14 day
CC(C)[C@H](N)C(=O)N1CCC[C@H]1B(O)O [Val-Boro-Pro],effect on hematopoiesis,hematopoiesis,stimulated hematopoiesis
diprotin A,effect on degradation of GRF in plasma to GRF[3-44],DP-IV,prevented
